The values below come from patent publication US20110092488A1, “Quninoline Methanol Compounds for the Treatment and Prevention of Parasitic Infections” (priority 2005, published 2011).

SMILES strings stand for the structures. In brackets after ≈: the same amount, converted by molar mass. Where two headings read alike, the source gives them in different places.

For data set [1], the system named is primary rat forebrain neurons. As to the kind of experiment: Neurocytotoxicity assay (MTT). As for the experimental part:
The neurocytotoxicity assay of AAQMs was conducted as per Dow et al.; The antimalarial potential of 4-quinolinecarbinolamines may be limited due to neurotoxicity and cross-resistance in mefloquine-resistant Plasmodium falciparum strains; Chemother. (48) 2624-2632 (2004) and is incorporated herein, by reference. This assay utilizes primary rat forebrain neurons and is a multi-endpoint screen. […] The AAQMs outlined in Table 1 were screened at 10, 100 and 1000 μM in triplicate, and the reduction in viability observed was determined using the 3-(4,5-dimethylthiazol-2-yl)-2,5-diphenyltetrazolium bromide (MTT) assay as per Dow et al., discussed above. Approximate IC50 values were calculated on the basis of the level of inhibition observed at each concentration. Full dose response assays were run for mefloquine and WR069878 with two fold dilutions (n=6 wells per dilution) and 11 dilutions for each drug. IC50s were calculated using Prism. Each time the assay is conducted, 20 μM mefloquine is included, as a control. […] Assays are re-run if the loss of viability induced by mefloquine is <40% or >60%. Neuroprotection experiments with 6,7-dinitroquinoxaline-2,3-dione (DNQX) and magnesium were performed as per Dow et al.; Transcriptional profiling of mefloquine-induced disruption of calcium homeostasis in neurons in vitro; Genomics (86)539-550 (2005), which is incorporated by reference, herein. Neurons were exposed to DNQX (100 μM) or magnesium (12 mM) for 5 min, followed by mefloquine (25 μM) or WR069878 (250 μM) for 20 min after which reduction in cell viability was determined. […] DNQX is an inhibitor of non-N-methyl-D-aspartate (NMDA) receptors, whilst magnesium inhibits the functioning of the inositol 1,4,5-trisphosphate (IP3)-mediated calcium signaling pathway at several points. The effects of mefloquine and WR069878 on neuronal calcium homeostasis were assessed utilizing confocal microscopy as per Dow et al, as discussed in Antimicrob Agents Chemother. (48)2624-2632 (2004), cited above, and incorporated by reference, herein. Briefly neurons were loaded with calcium sensitive dye Fluo 3-A for 1 h and were washed prior to image experiments. Neurons were ‘spiked’ with 100 μM mefloquine or WR069878. Subsequent changes in neuronal calcium homeostasis were recorded as fluctuations in the emitted fluorescence of fluo-3-complexed calcium at 530 nm (excitation was 488 nm). Sequential image scans of fields containing 5-25 neurons were used to construct temporal profiles. Scans were made at 10 s intervals. Fluorescence levels for each neuron were normalized 12 to time zero values. Data were then pooled from three and five independent experiments for mefloquine and WR069878 respectively.

In data set [2] the target is human multiple drug resistance transporter (MDR1), P-glycoprotein (Homo sapiens, UniProt P08183). To be noted: not told; cited from earlier work.
Another data set deals with P. falciparum TM90C2A. As to the kind of experiment: In vitro antimalarial activity against P. falciparum TM90C2A. Format: cell-based, Plasmodium falciparum. As for the experimental part: (§1) The in vitro activities of AAQMs against P. falciparum strains W2, D6, TM91C235 and TM90C2A were evaluated using the method of Desjardins et al. as modified by Milhous et al. W2 is chloroquine resistant and mefloquine sensitive, D6 is chloroquine sensitive but naturally less susceptible to mefloquine, TM91C235 is resistant to mefloquine, chloroquine and pyrimethamine as is TM90C2A, however this latter parasite is a two pfmdr1 copy strain. We routinely run mefloquine in this screen as a control to ensure assay validity.

Data set [3] relates to primary rat forebrain neurons. As to the kind of experiment: Neuroprotection experiments with DNQX and magnesium. The note with it: DNQX 100 μM or magnesium 12 mM; mefloquine 25 μM, WR069878 250 μM; FIG. 2(c). As for the experimental part:
(§2) The neurocytotoxicity assay of AAQMs was conducted as per Dow et al.; The antimalarial potential of 4-quinolinecarbinolamines may be limited due to neurotoxicity and cross-resistance in mefloquine-resistant Plasmodium falciparum strains; Chemother. (48) 2624-2632 (2004) and is incorporated herein, by reference. This assay utilizes primary rat forebrain neurons and is a multi-endpoint screen. […] The AAQMs outlined in Table 1 were screened at 10, 100 and 1000 μM in triplicate, and the reduction in viability observed was determined using the 3-(4,5-dimethylthiazol-2-yl)-2,5-diphenyltetrazolium bromide (MTT) assay as per Dow et al., discussed above. Approximate IC50 values were calculated on the basis of the level of inhibition observed at each concentration. […] IC50s were calculated using Prism. […] Neurons were exposed to DNQX (100 μM) or magnesium (12 mM) for 5 min, followed by mefloquine (25 μM) or WR069878 (250 μM) for 20 min after which reduction in cell viability was determined. […] The effects of mefloquine and WR069878 on neuronal calcium homeostasis were assessed utilizing confocal microscopy as per Dow et al, as discussed in Antimicrob Agents Chemother. […] Subsequent changes in neuronal calcium homeostasis were recorded as fluctuations in the emitted fluorescence of fluo-3-complexed calcium at 530 nm (excitation was 488 nm). […]

The test system of data set [4] is neuronal calcium homeostasis. The data set can be described thus: Neuronal calcium homeostasis, confocal microscopy (Fluo-3). The note with it: 100 μM, FIG. 2(b). As for the experimental part:
as §2

The subject of a further data set is P. falciparum TM91C235. The data set can be described thus: In vitro antimalarial activity against P. falciparum TM91C235. It counts as cell-based, Plasmodium falciparum. As for the experimental part:
as §1

The conditions of data set [5]: humans; cited from earlier work.
Another data set relates to P. falciparum D6. The data set can be described thus: In vitro antimalarial activity against P. falciparum D6. Format: cell-based, Plasmodium falciparum. As for the experimental part:
as §1
The combined effects of azithromycin (as represented by compound 196 on the horizontal axes of FIG. 4 through 6) and WR074086 (as represented by compound 14885 on vertical axes of FIGS. 4 through 6) against three strains of P. falciparum were investigated using isobologram analysis. First, the IC50s of each compound were determined as described above.

The procedure of data set [6]: The AAQMs indicated in Table 1 (10 μM) were added to a mixture containing an NADPH-regenerating buffer (1.25 mM β-NADP+, 3.3 mM glucose-6-phosphate, and 3.3 mM MgCl2) and 0.5 mg/ml pooled human liver microsomes to a final volume of 125 μl. The mixtures were incubated for 5 minutes at 37° C. and the reactions were initiated by adding 25 μl glucose-6-phosphate dehydrogenase to a final concentration of 1 unit/ml. The reactions were maintained at 37° C. until they were terminated by the addition of an equal volume of 100% ice cold acetonitrile at 0, 10, 30, 60, and 120 minutes. Samples were centrifuged to pellet the proteins and the supernatant was analyzed by LC-MS/MS in duplicate using fast LC gradient or isocratic methods. AAQM concentrations were quantified with external calibration, using plots of response v. amount. Chromatograms were analyzed using the mass spectrometry software Xcalibur® QuanBrowser (for ThermoFinnigan® instruments) or MassLynx® (for Waters® instruments). Concentrations of AAQMs remaining at each time point were calculated using the unknown peak areas and corresponding calibration curves. In order to calculate the half-life, a first-order rate of decay was assumed. […] All reagents were purchased from Sigma except for the microsomes, which were obtained from BD Gentest®. For metabolite identification, samples were prepared as described above with human liver microsomes. Additional samples were prepared with for each AAQM using mouse, rat, and rhesus monkey liver microsomes. Samples were separated using an LC gradient method and analyzed by full scan LC-MS and LC-MS/MS. […] These MS/MS data were also used to do preliminary structural elucidation. […] The relative percentage of formation of each metabolite was determined in a semi-quantitative manner since standards of each metabolite were not available. Peak areas of each detected AAQM metabolite and the internal standard were determined, and their ratios were calculated as metabolite area/internal standard area. The percent formation of each metabolite was determined as the area ratio divided by the sum of all the metabolite area ratios.

In the next data set the test system is P. falciparum W2. As to the kind of experiment: In vitro antimalarial activity against P. falciparum W2. Format: cell-based, Plasmodium falciparum. As for the experimental part:
as §1

For data set [7] the following is noted: rats; cited from earlier work.
For data set [8] the following is noted: single mefloquine treatment dose; cited from earlier work.
A short description of data set [9]: Phototoxicity in mice (historical experiments). The note with it: WR030090: 25 or 50 mg/kg orally, WRAIR archival data.
In data set [10] the test system is Balb/c 3T3 mouse fibroblast cells. As to the kind of experiment: 3T3 neutral red uptake (NRU) phototoxicity test. Format: cell-based. To be noted: UVA 5 J/cm2; potential to be phototoxic if PIF > 5.0. An excerpt: A pharmacophore for phototoxicity was developed to be used as an in silico screening tool to determine the minimum phototoxic concentration for a number of AAQMS (WR069878 and those indicated in Table 5). Minimum phototoxic concentration in a yeast assay for a number of AAQMS, as per Ison et al.; Phototoxicity of Quinoline methanols and other drugs in mice and yeast; J. Invest. Dermatol. (52)193-198 (1969) were used to generate a three-dimensional pharmacophore model using the HypoGen algorithm of the […]® (Accelrys software Inc.) methodology as per Bhattacharjee et al.; A 3D QSAR pharmacophore model and quantum chemical structure—activity analysis of chloroquine(CQ)-resistance reversal; J. Chem Inf. Comput Sci. (42) 1212-1220 (2002), and Dow et al.; as discussed in Antimicrob Agents Chemother. (48)2624-2632 (2004), cited above, both Bhattacharjee et al. and Dow et al, incorporated herein, by reference. The structures of clinically used quinoline methanols were mapped onto the pharmacophores and estimated values for minimum phototoxic concentration were generated. The 3T3 neutral red uptake (NRU) phototoxicity test, conducted by MB Research Laboratories (Spinnerstown, Pa.), was used to identify quinoline methanols (WR069878 and those in Table 5) that have the potential to exert in vivo phototoxicity after systemic application. Briefly, the central 60 wells of two 96-well plates per AAQM were seeded with Balb/c 3T3 mouse fibroblast cells and maintained in culture for 24 hrs. These plates were then pre-incubated with a range of eight different concentrations of test compound (six wells per concentration) for one hour. Next, one plate was treated with a UVA dose of 5 J/cm2 by irradiating for 50 min at 1.7 mW/cm2, whereas the other plate remained non-treated and in the dark. Next, the treatment medium was replaced with culture medium and cell viability was determined after 24 hrs by measuring neutral red uptake for 3 hrs. Finally, the 3T3 NRU Phototox Prediction Software (version 2.0, ZEBET) was used to calculate EC50 values and Photo-Irritant Factors (PIF) for each compound. […]

For data set [11] the following is noted: by 'injection'; Ison and Davis, 1969; cited from earlier work.
The next data set concerns yeast. To be noted: Ison and Davis, 1969; cited from earlier work.

Take `OC(c1cc(C(F)(F)F)nc2c(C(F)(F)F)cccc12)C1CCCCN1` (stereo not drawn) [Mefloquine, reference compound]: the IC50 in data set [1] (read-out: Median IC50 against rat neurons, Table 4) was determined as 20 µM; in data set [1] (read-out: Neurotoxicity IC50, full dose response, FIG. 2(a)) it was 27 µM; in data set [1] (read-out: Neurotoxicity ranking (IC50 in μM), approximate IC50 from screen at 10, 100 and 1000 μM, MTT) it was 20 µM; in the data set with P. falciparum TM91C235 (Table 4, read-out: Median IC50 against P. falciparum TM91C235), 0.035 µM. Further, the PgP interaction entry in [2] was “PgP substrate and inhibitor”. Besides, in the data set with P. falciparum TM90C2A, the “IC90 against TM90C2A” value stood at 0.101 µg/mL (≈ 0.267 µM). In data set [3], the “Neurotoxicity blocked by DNQX and supra-physiological magnesium” value is given as “is blocked”. In addition, the “Effect on intracellular calcium (Fluo-3 fluorescence)” value in data set [4] is given as “increases intracellular calcium concentrations”. The “Activity against P. falciparum TM91C235 (IC50 in ng/ml)” value with P. falciparum TM91C235 was 15 ng/mL. In addition, in the data set with P. falciparum TM91C235 (control, last 15 assays), the “Mean IC50 +/- SD against P. falciparum TM91C235” value turned out to be 0.0157 ± 0.0027 µg/mL. In addition, in the data set with P. falciparum TM91C235 (text b26), the “IC90 against TM91C235” value amounted to 0.089 µg/mL (≈ 0.235 µM). Further, the “Maximum concentration in CNS” value was 52 µM in [5] and 113 µM in data set [7]. Also, the “IC90 against D6” value in the data set with P. falciparum D6 was 0.02 µg/mL (≈ 0.0529 µM). In addition, in data set [6], the “Half-life, human liver microsomes” value was greater than 2 h. The “IC90 against W2” value in the data set with P. falciparum W2 is 0.0039 µg/mL (≈ 0.0103 µM). Moreover, in data set [8], the Peak plasma concentrations was 800 to 8000 ng/mL. Besides, the Phototoxicity in mice entry in [9] is “Not phototoxic at tolerated doses”.

Take `OC(c1cc(-c2ccccc2)nc2c(Cl)cc(Cl)cc12)C1CCCCN1` (stereo not drawn) [WR007930]: the “Photo Irritant Factor (PIF)” value in data set [10] is 29.0. Further, the “Minimum phototoxic dose in mice” value in [11] is given as “Minimum phototoxic dose is 7 mg/kg”. The “Yeast minimum phototoxic concentration” value in the data set with yeast was 31 mg/ml^c.
